According to patent US20250074911A1, “MACROCYCLIC BTK INHIBITORS” (Crossfire Oncology Holding B.V., priority 2021, published 2025):
Several values for one entry are separate records, joined by “and”; a condition that tells them apart may be missing. Equal entries are not always repeated.

Columns and labels:
[1] = molecular target: full-length wt-BTK enzyme (Homo sapiens (Human), UniProt Q06187); assay: Biochemical kinase assay wt-BTK (IMAP)
Summary of the method: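 Compound and enzyme (final 1.2 nM) were pre-incubated for 1 h at RT, after which the reaction was started with 4 μM ATP plus 50 nM fluorescein-MBP substrate peptide. After 2 h in the dark, the IMAP progressive binding reagent stopped the reaction, and phosphorylation was read by fluorescence polarization.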

[2] = molecular target: full-length BTK C481S enzyme (Homo sapiens (Human), UniProt Q06187, C481S); assay: Biochemical kinase assay BTK C481S (IMAP)
Summary of the method: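 IC50 values come from IMAP fluorescence polarization after quenching with progressive binding solution. The reaction ran 2 h at room temperature in the dark with 1.2 nM full-length C481S enzyme, 7 μM ATP and 50 nM fluorescein-labelled MBP-derived peptide, following a 1 h dark pre-incubation of compound with enzyme.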

[3] = system: wt-REC-1 mantle cell lymphoma cells; assay: Cell proliferation assay wt-REC-1 (ATPlite, 72 hours); format: cell-based; conditions: 72 h; read-out: IC50 wt-REC-1
Summary of the method: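 Luminescent viability read over 72 h, start-of-incubation signal recorded separately to separate growth from cell death. Percentage growth referenced to compound-free 0.3% DMSO wells; IC50 from 4-parameter logistic fit.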

REC-1 T474I cell lines = assay: Cell proliferation assay REC-1 BTK T474I knock-in cells (ATPlite, 72 hours); format: cell-based; conditions: Homo sapiens, Rec1; 72 hours; read-out: IC50 REC-1 T474I
Summary of the method: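 REC-1 cells carrying CRISPR knock-in mutant BTK, single-cell cloned and sequence-confirmed, were exposed to compound for 72 h and read by ATPlite luminescence. Percentage growth was calculated against the signal at the start of incubation and against untreated 0.3% DMSO wells as maximum growth.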

wt-BTK = wt-BTK (Homo sapiens (Human), UniProt Q06187); assay: Binding kinetics measurements (Surface Plasmon Resonance) on wt-BTK; conditions: for Tau (h) wt-BTK (Act): target residence time, SPR; for Kd: binding affinity by Surface Plasmon Resonance (SPR)
Experimental: (§1) Binding kinetics measurements on wt-BTK, BTK […], BTK […], BTK […] and BTK […] (Surface Plasmon Resonance) Streptavidin-coated chips (Cat. No. BR100531), disposables and maintenance kits for Biacore were purchased from Cytiva (Eindhoven, The Netherlands). […] Remaining streptavidin was blocked with biocytin. Immobilization was performed at 4° C. Subsequent assay steps were conducted at 22° C. After changing buffer to Biacore buffer with 1% (v/v) dimethylsulfoxide (DMSO), a pre-run was performed for a period of at least 30 min at a flow rate of 30 μl/min to obtain a stable surface. The kinetic constants of the compounds were determined with single cycle kinetics with five consecutive injections with an increasing compound concentration with ranges of 3.16-316 nM. […] To circumvent problems of mass transport limitation, a flow rate of 30 μl/min was used. A blank run with the same conditions was performed before the compound was injected. The SPR sensorgrams were analyzed with Biacore Evaluation Software by using a method of double referencing. First the reference channel was subtracted from the channel containing immobilized protein. Subsequently, the reference curve obtained with buffer injections was subtracted. […] Compounds that bound according to an induced fit model were fitted with a two-state reaction model. The kinetic constants (ka, […], KD) of duplicates were geometrically averaged. […] Target residence for an induced fit model was calculated as described (Tummino and Copeland, 2008).

BTK T474S = BTK T474S (Homo sapiens (Human), UniProt Q06187, T474S); assay: Binding kinetics measurements (Surface Plasmon Resonance) on BTK T474S; conditions: for residence time: SPR binding kinetics, BTK T474S, read-out: Tau (h) BTK T474S (Act), target residence time (converted); for Kd: binding affinity by Surface Plasmon Resonance (SPR)
Experimental: as §1

[4] = system: wt-TMD8 diffuse large B-cell lymphoma cells; assay: Cell proliferation assay wt-TMD8 (ATPlite, 120 hours); format: cell-based; conditions: B-cell; wt-TMD8 cells, 120 hours, ATPlite; read-out: IC50 wt-TMD8
Summary of the method: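 Readout is percentage growth from ATPlite 1Step luminescence after 5 days (120 h) compound treatment of wt-TMD8 lymphoma cells (1600/well, RPMI-1640 + 10% FBS). Time-zero signal separates growth inhibition from cell kill; 0.3% DMSO wells without compound define maximal growth.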

BTK C481S = BTK C481S (Homo sapiens (Human), UniProt Q06187, C481S); assay: Binding kinetics measurements (Surface Plasmon Resonance) on BTK C481S; conditions: for Kd: binding affinity by Surface Plasmon Resonance (SPR); for Tau (h) BTK C418S (Act): target residence time for BTK C481S, SPR
Experimental: as §1

BTK T474I = BTK T474I (Homo sapiens (Human), UniProt Q06187, T474I); assay: Binding kinetics measurements (Surface Plasmon Resonance) on BTK T474I; conditions: for Tau (h) BTK T474I (Act): target residence time, SPR; for Kd: binding affinity by Surface Plasmon Resonance (SPR)
Experimental: as §1

BTK T316A = BTK T316A (Homo sapiens (Human), UniProt Q06187, T316A); assay: Binding kinetics measurements (Surface Plasmon Resonance) on BTK T316A; conditions: for Kd: binding affinity by Surface Plasmon Resonance (SPR); for Tau (h) BTK T316A (Act): target residence time, SPR
Experimental: as §1

Sequence of BTK T316A (Q06187 whole entry T316A): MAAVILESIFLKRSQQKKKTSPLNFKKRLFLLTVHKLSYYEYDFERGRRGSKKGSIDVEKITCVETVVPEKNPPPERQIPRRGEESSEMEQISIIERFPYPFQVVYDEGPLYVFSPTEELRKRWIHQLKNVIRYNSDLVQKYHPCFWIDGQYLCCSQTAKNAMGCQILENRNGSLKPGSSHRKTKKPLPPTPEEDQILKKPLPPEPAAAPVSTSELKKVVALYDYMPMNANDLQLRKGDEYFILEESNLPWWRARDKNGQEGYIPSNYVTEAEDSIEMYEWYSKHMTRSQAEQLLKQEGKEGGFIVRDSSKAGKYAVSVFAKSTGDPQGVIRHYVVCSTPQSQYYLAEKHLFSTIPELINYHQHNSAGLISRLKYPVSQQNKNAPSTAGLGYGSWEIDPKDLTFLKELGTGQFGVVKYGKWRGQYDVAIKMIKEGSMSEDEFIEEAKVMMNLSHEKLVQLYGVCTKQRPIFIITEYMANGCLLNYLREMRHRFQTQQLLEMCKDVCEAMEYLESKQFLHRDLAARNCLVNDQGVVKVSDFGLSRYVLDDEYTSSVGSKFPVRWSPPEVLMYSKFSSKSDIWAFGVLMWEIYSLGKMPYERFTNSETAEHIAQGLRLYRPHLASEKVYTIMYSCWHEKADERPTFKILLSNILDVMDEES
Sequence of full-length BTK C481S enzyme (Q06187 whole entry C481S): as the sequence (Q06187 whole entry T316A) above, with A316T, C481S counted along it
Sequence of BTK C481S (Q06187 whole entry C481S): as the sequence (Q06187 whole entry T316A) above, with A316T, C481S counted along it
Sequence of BTK T474I (Q06187 whole entry T474I): as the sequence (Q06187 whole entry T316A) above, with A316T, T474I counted along it
Sequence of BTK T474S (Q06187 whole entry T474S): as the sequence (Q06187 whole entry T316A) above, with A316T, T474S counted along it
Sequence of full-length wt-BTK enzyme (Q06187 whole entry): as the sequence (Q06187 whole entry T316A) above, with A316T counted along it
Sequence of wt-BTK (Q06187 whole entry): as the sequence (Q06187 whole entry T316A) above, with A316T counted along it

| IC50 [1] | IC50 [2] | IC50 [3] | Tau (h) wt-BTK (Act) (wt-BTK) | residence time (BTK T474S) | IC50 [4] | Kd (BTK C481S) | Tau (h) BTK C418S (Act) (BTK C481S) | Tau (h) BTK T474I (Act) (BTK T474I) | Kd (BTK T474S) | Kd (wt-BTK) | Kd (BTK T316A) | Tau (h) BTK T316A (Act) (BTK T316A) | Kd (BTK T474I) | Compound | IC50 (REC-1 T474I cell lines) |
| --- | --- | --- | --- | --- | --- | --- | --- | --- | --- | --- | --- | --- | --- | --- | --- |
| < 5 nM | < 5 nM | < 100 nM | 2.95 h | 5.65 h | < 100 nM |  |  |  |  |  |  |  |  | C[C@@H]1CC(=O)N[C@@H]2CC[C@H](C2)n2nc(-c3ccc(C(=O)Nc4cc(C#N)ccn4)cc3)c3c(N)ncc(c32)/C=C/CCN1 [Example 181] | 500 to 10000 nM |
| < 5 nM | < 5 nM | < 100 nM | >24 h | > 24 h | < 100 nM | < 5 nM | 4.15 h | >24 h | < 5 nM |  |  |  |  | N#Cc1ccnc(NC(=O)c2ccc(-c3nn4c5c(cnc(N)c35)/C=C/COCCC(=O)N[C@@H]3CC[C@@H]4C3)cc2)c1 [Example 183] | < 100 nM |
| < 5 nM | < 5 nM | < 100 nM | 6.49 h | 8.38 h | < 100 nM |  |  | 0.85 h | < 3 nM | < 5 nM | < 5 nM | 2.16 h | < 2 nM | C[C@@H]1CC(=O)N[C@@H]2CCC[C@H](C2)n2nc(-c3ccc(C(=O)Nc4cc(C(F)(F)F)ccn4)cc3)c3c(N)ncc(c32)/C=C/CCN1C [Example 40] | < 100 nM |
| < 5 nM | < 5 nM | < 100 nM | 3.24 h |  | < 100 nM |  | 1.61 h |  |  |  |  | 6.98 h |  | N#Cc1ccnc(NC(=O)c2ccc(-c3nn4c5c(cnc(N)c35)/C=C/CCN3CC[C@H]3C(=O)N[C@@H]3CCC[C@@H]4C3)cc2)c1 [Example 165] | < 100 nM |
| < 5 nM | < 5 nM | < 100 nM |  | 1.06 h | < 100 nM |  |  |  | < 3 nM |  |  | 1.05 h | 10 to 50 nM and < 5 nM | C[C@H]1CC(=O)N[C@@H]2CCC[C@H](C2)n2nc(-c3ccc(C(=O)Nc4cc(C(F)(F)F)ccn4)cc3)c3c(N)ncc(c32)/C=C/CCO1 [Example 156] | < 100 nM |
| < 5 nM | < 5 nM | < 100 nM | 1.35 h |  | < 100 nM | < 5 nM | 3.56 h | 0.77 h |  |  |  | 4.98 h |  | Nc1ncc2c3c1c(-c1ccc(C(=O)Nc4cc(C(F)(F)F)ccn4)cc1)nn3[C@@H]1CC[C@H](C1)NC(=O)[C@@H]1CCN1CC/C=C/2 [Example 174] | < 100 nM |
| < 5 nM | < 5 nM | < 100 nM | 2.96 h | 1.03 h | < 100 nM |  |  | 1.07 h |  |  |  |  |  | N#Cc1ccnc(NC(=O)c2ccc(-c3nn4c5c(cnc(N)c35)/C=C/CCCCCC(=O)N[C@@H]3CC[C@@H]4C3)cc2)c1 [Example 182] | < 100 nM |
| < 5 nM | < 5 nM | 100 to 1000 nM |  | 1.35 h | < 100 nM |  |  |  | < 3 nM | < 5 nM |  |  | 10 to 50 nM and < 5 nM | COc1ccc(F)cc1C(=O)NCc1ccc(-c2nn3c4c(cnc(N)c24)/C=C/COCC(=O)N[C@@H]2CCC[C@@H]3C2)cc1 [Example 52] | 500 to 10000 nM |
| < 5 nM | < 5 nM | < 100 nM | 18.83 h | 13.6 h | < 100 nM |  |  | 2.13 h | < 5 nM |  |  |  |  | COc1ccc(F)cc1C(=O)NCc1ccc(-c2nn3c4c(cnc(N)c24)/C=C/CCCCCC(=O)N[C@@H]2CCC[C@@H]3C2)cc1 [Example 187] | 100 to 500 nM |
| < 5 nM | < 5 nM | < 100 nM | 4.53 h | 5.15 h | < 100 nM |  |  | 0.63 h | < 3 nM | < 5 nM | < 5 nM | 4.74 h | < 2 nM | Nc1ncc2c3c1c(-c1ccc(C(=O)Nc4cc(C(F)(F)F)ccn4)cc1)nn3[C@@H]1CCC[C@H](C1)NC(=O)COCCC/C=C/2 [Example 18] | < 100 nM |
| < 5 nM | < 5 nM | < 100 nM | 7.36 h | 3.01 h | < 100 nM | < 5 nM | 4.06 h | 1.14 h |  |  |  |  | < 2 nM | C[C@@H]1CC(=O)N[C@@H]2CCC[C@H](C2)c2nc(-c3ccc(C(=O)Nc4cc(C(F)(F)F)ccn4)cc3)c3c(N)ncc(n23)/C=C/CCN1 [Example 179] | 100 to 500 nM |
| < 5 nM | < 5 nM | < 100 nM | 7.42 h | 7.27 h | < 100 nM |  |  | 1.16 h |  |  |  |  | < 2 nM | C[C@@H]1CC(=O)N[C@@H]2CCC[C@H](C2)n2nc(-c3ccc(C(=O)Nc4cc(C#N)ccn4)cc3)c3c(N)ncc(c32)/C=C/CCN1 [Example 180] | 100 to 500 nM |
| < 5 nM | < 5 nM | < 100 nM | 2.12 h |  | < 100 nM |  | 2.23 h | 0.77 h |  |  |  |  |  | N#Cc1ccnc(NC(=O)c2ccc(-c3nc4n5c(cnc(N)c35)/C=C/COCCC(=O)N[C@@H]3CCC[C@@H]4C3)cc2)c1 [Example 200] | 500 to 10000 nM |
| < 5 nM | < 5 nM | < 100 nM | 4.47 h |  | < 100 nM |  |  | 3.61 h |  | < 5 nM | < 5 nM | 16.05 h | < 2 nM | Nc1ncc2c3c1c(-c1ccc(C(=O)Nc4cc(C(F)(F)F)ccn4)cc1)nn3[C@@H]1CCC[C@H](C1)C(=O)NCCCCC/C=C/2 [Example 2] | < 100 nM |
| < 5 nM | < 5 nM | < 100 nM |  |  |  | < 5 nM | 6.69 h | 0.64 h |  |  | < 5 nM | 3.12 h | 10 to 50 nM and < 5 nM | Nc1ncc2c3c1c(-c1ccc(C(=O)Nc4cc(C(F)(F)F)ccn4)cc1)nn3[C@@H]1CCC[C@H](C1)C(=O)NCCCCC/C=C\C2 [Example 89b] |  |
| < 5 nM | < 5 nM | < 100 nM | 8.77 h |  | < 100 nM | < 5 nM | 1.24 h | 0.92 h |  | < 5 nM | < 5 nM | 2.99 h | < 2 nM | Nc1ncc2c3c1c(-c1ccc(C(=O)Nc4cc(C(F)(F)F)ccn4)cc1)nn3[C@@H]1CCC[C@H](C1)C(=O)NCCCC/C=C/2 [Example 1] | < 100 nM |
